Experimental data published in the supplement of paper PMC10307832.

What was measured:
Vandetanib = compound: COc1cc2/c(=N/c3ccc(Br)cc3F)nc[nH]c2cc1OCC1CCN(C)CC1 [Vandetanib]; test: relative viability (nuclei count vs DMSO), 5 days (fraction); higher = more cells survive
Outline: (§1)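 Lung cancer cell lines in 1536-well plates were kept overnight at 37 °C, then pinned with five library-drug doses (not always all listed) spaced by √10 on vehicle-anchored plates. After 5 days without medium change, cells were fixed, permeabilised and Hoechst-stained in one step, imaged at 4×, and nuclei were counted with MetaXpress. Viability is treated-well nuclei divided by vehicle-well nuclei, taken as the median over plates. Plates passed only with control CV below 25% and at least one doubling.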

[1] = compound: C1=CC=C2C(=C1)N=C(S2)C(C#N)C3=NC(=NC=C3)NCCC4=CN=CC=C4; test: as above
Outline: as §1

For UMC-11, the relative viability (Vandetanib; 0.02 µM) was 0.94, the relative viability (Vandetanib; 0.06325 µM) was 0.901 and the relative viability (Vandetanib; 0.2 µM) was 0.9. For the same cell line, the relative viability (Vandetanib; 0.6325 µM) was 0.91, the relative viability (Vandetanib; 2 µM) was 0.964 and the relative viability ([1]; 0.005 µM) was 0.884. The relative viability ([1]; 0.01581 µM) was 1.01, the relative viability ([1]; 0.05 µM) was 0.96 and the relative viability ([1]; 0.1581 µM) was 1.16. For the same cell line, the relative viability ([1]; 0.5 µM) was 0.967.
